Assay results reported in patent US20100173835A1, “Peptides for Treatment of Obesity” (Novo Nordisk A/S, priority 2008, published 2010).
Read-outs that look alike come from different tables or passages of the source. Where a SMILES comes first, the peptide text is derived from it. Bridges are numbered along the chain shown (N, C = ends). [ ]: non-standard residue; d: D form. The star is where a group is joined. Palmitoyl(16-(5-tetrazolyl)) = O=C(CCCCCCCCCCCCCCCc1nnn[nH]1)*; X2 = O=C(CCCCCCCCCCCCCCCc1nnn[nH]1)NS(=O)(=O)CCCC(=O)*; C16 diacid = O=C(O)CCCCCCCCCCCCCCC(=O)*; Hyp = O=C(O)[C@@H]1C[C@@H](O)CN1; NTA = O=C(O)CN(CC(=O)O)CC(=O)*; Nle = CCCC[C@H](N)C(=O)O; Dap = NC[C@H](N)C(=O)O; AEEA = NCCOCCOCC(=O)O

Experiments:
human MC4 receptor = biological target: T1, human MC4 receptor (Homo sapiens, UniProt P32245); test: Assay (V) Melanocortin Receptor 4 (MC4) binding assay; details: 125NDP-α-MSH binding, BHK cell membranes
T1 construct: expressed in transfected cells
Method: Assay (V)—Melanocortin Receptor 4 (MC4) Binding Assay
In vitro ^125NDP-α-MSH binding to recombinant BHK cells expressing human MC4 receptor (filtration assay).
The assay is performed in 5 ml minisorb vials (Sarstedt No. 55.526) or in 96-well filterplates (Millipore MADVN 6550), and using BHK cells expressing the human MC4 receptor using BHK cells stably expressing the human MC4 receptor. The membranes were prepared from frozen or fresh cells that were homogenized in 20 mM HEPES pH 7.1, 5 mM MgCl2 and 1 mg/ml bacitracin and centrifuged at 15000 rpm at 4° C., 10 min in a Sorvall RC 5B plus, SS-34 rotor. The supernatant was discarded, and the pellets were re-suspended in buffer, homogenized and centrifuged two more times. The final pellets were resuspended in the buffer mentioned above, and the protein concentration was measured and adjusted with buffer to 14 to 17 mg/ml and the membrane preparation were kept at −80° C. until assay. The assay was run directly on a dilution of this cell membrane suspension, without any further preparation. The BHK cell membranes are kept at −80° C. until assay, and the assay is run directly on a dilution of this cell membrane suspension, without further preparation. The suspension is diluted to give maximally 10% specific binding, i.e. to approx. 50-100 fold dilution. The assay is performed in a total volume of 200 μl: 50 μl of cell suspension, 50 μl of ^125NDP-α-MSH (≈79 pM in final concentration), 50 μl of test compound and 50 μl binding buffer (pH 7) mixed and incubated for 2 h at 25° C. [binding buffer: 25 mM HEPES, pH 7.0, 1 mM CaCl2, 1 mM MgSO4, 1 mM EGTA, 0.02% Bacitracin, 0.005% Tween™ 20 and 0.1% HSA or, alternatively, 0.1% ovalbumin (Sigma; catalogue No. A-5503)]. Test compounds are dissolved in DMSO and diluted in binding buffer. Radiolabelled ligand and membranes are diluted in binding buffer. The incubation is stopped by dilution with 2×100 μl ice-cold 0.9% NaCl. The radioactivity retained on the filters is counted using a Cobra II auto gamma counter.
(§1) The data are analysed by non-linear regression analysis of binding curves, using the Windows™ program GraphPad™ Prism (GraphPad Software, USA).

MC1 receptor = biological target: T2, MC1 receptor (Homo sapiens, UniProt Q01726); test: Assay (IV) Melanocortin Receptor 1 (MC1) binding assay
T2 construct: expressed in transfected cells
Method: Assay (IV)—Melanocortin Receptor 1 (MC1) Binding Assay
The MC1 receptor binding assay is performed on BHK cell membranes stably expressing the MC1 receptor. The assay is performed in a total volume of 250 NI: 25 μl of ^125NDP-α-MSH (22 pM in final concentration), 25 μl of test compound/control and 200 μl of cell membrane (25 μg/ml). Test compounds are dissolved in DMSO. Radioactively labeled ligand, membranes and test compounds are diluted in buffer: 25 mM HEPES, pH 7.4, 0.1 mM CaCl2, 1 mM MgSO4, 1 mM EDTA, 0.1% HSA and 0.005% Tween™ 20. Alternatively, HSA may be substituted with ovalbumin. The samples are incubated at 30° C. for 90 min. in Costar round-bottom microtiter plates. Incubation is terminated by filtration on a Packard harvester filtermate. Rapid filtration through Packard Unifilter-96 GF/B filters pre-treated with polyethylenimine (PerkinElmer 6005277). The filters are washed with ice-cold 0.9% NaCl 8-10 times. The plates is air dried at app. 55° C. for 30 min, and 50 μl Microscint 0 (Packard, cat. No. 6013616) is added to each well. The plates are counted in a Topcounter (1 min/well).
as §1

[1] = 125NDP-α-MSH binding, BHK cell membranes, read-out: Assay (IV) MC1 Ki

T1 sequence (P32245 whole entry): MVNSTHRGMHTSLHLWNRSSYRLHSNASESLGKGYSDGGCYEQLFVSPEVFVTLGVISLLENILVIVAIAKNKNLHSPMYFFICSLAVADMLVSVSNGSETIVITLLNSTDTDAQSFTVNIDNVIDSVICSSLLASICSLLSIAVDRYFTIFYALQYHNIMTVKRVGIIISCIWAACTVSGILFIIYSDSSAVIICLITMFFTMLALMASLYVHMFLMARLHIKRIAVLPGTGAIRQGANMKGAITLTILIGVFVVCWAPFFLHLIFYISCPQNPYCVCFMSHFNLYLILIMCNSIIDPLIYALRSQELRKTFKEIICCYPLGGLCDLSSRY
T2 sequence (Q01726 whole entry): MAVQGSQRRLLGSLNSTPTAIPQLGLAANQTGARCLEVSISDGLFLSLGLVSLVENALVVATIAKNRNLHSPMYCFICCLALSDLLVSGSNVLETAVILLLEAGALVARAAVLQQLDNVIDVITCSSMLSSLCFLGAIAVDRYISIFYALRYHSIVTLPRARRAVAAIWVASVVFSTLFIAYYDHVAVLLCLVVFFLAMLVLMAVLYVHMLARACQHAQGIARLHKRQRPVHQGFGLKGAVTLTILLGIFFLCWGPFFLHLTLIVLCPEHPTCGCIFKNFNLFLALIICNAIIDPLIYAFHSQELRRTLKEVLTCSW

Row | SMILES | Ki (human MC4 receptor; read-out: Assay (V) MC4 [Ki]) [nM] | Ki (MC1 receptor; [1]) [nM] | Ki (human MC4 receptor; Assay (V) MC4 [Ki] (nM)) [nM] | Ki (MC1 receptor) [nM]
1 | CCCC[C@H](NC(=O)[C@H](CNC(=O)CN(CC(=O)O)CC(=O)O)NC(=O)[C@H](Cc1c[nH]cn1)NC(=O)[C@H](CCC(N)=O)NC(=O)[C@H](CO)NC(=O)CNC(=O)COCCOCCNC(=O)CCCCCCCCCCCCCCC(=O)O)C(=O)N[C@H]1CCC(=O)NCCCC[C@@H](C(N)=O)NC(=O)[C@H](Cc2c[nH]c3ccccc23)NC(=O)[C@H](CCCNC(=N)N)NC(=O)[C@@H](Cc2ccccc2)NC(=O)[C@@H]2C[C@@H](O)CN2C1=O [Example 13, {2-[2-(15-Carboxypentadecanoylamino)ethoxy]ethoxy}acetyl-Gly-Ser-Gln-His-Dap(BCMA)-Nle-c[Glu-Hyp-D-Phe-Arg-Trp-Lys]-NH2] ({C16 diacid-AEEA}-GSQH[Dap](NTA)[Nle]E[Hyp][dF]RWK-NH2; lactam 7-12) | 3.6 | > 10000 |  | 
2 | CCCC[C@H](NC(=O)[C@H](CNC(=O)CN(CC(=O)O)CC(=O)O)NC(=O)[C@H](Cc1c[nH]cn1)NC(=O)[C@H](CCC(N)=O)NC(=O)[C@H](CO)NC(=O)CNC(=O)COCCOCCNC(=O)CCCS(=O)(=O)NC(=O)CCCCCCCCCCCCCCCc1nnn[nH]1)C(=O)N[C@H]1CCC(=O)NCCCC[C@@H](C(N)=O)NC(=O)[C@H](Cc2c[nH]c3ccccc23)NC(=O)[C@H](CCCNC(=N)N)NC(=O)[C@@H](Cc2ccccc2)NC(=O)[C@@H]2C[C@@H](O)CN2C1=O [Example 11, [2-(2-{4-[16-(Tetrazol-5-yl)hexadecanoylsulfamoyl]butanoylamino}ethoxy)ethoxy]acetyl-Gly-Ser-Gln-His-Dap(BCMA)-Nle-c[Glu-Hyp-D-Phe-Arg-Trp-Lys]-NH2] ({X2-AEEA}-GSQH[Dap](NTA)[Nle]E[Hyp][dF]RWK-NH2; lactam 7-12) |  |  | 3.25 | 9700
3 | CCCC[C@H](NC(=O)[C@H](CNC(=O)CN(CC(=O)O)CC(=O)O)NC(=O)[C@H](Cc1ccc(O)cc1)NC(=O)[C@H](CCC(N)=O)NC(=O)[C@H](CO)NC(=O)CNC(=O)COCCOCCNC(=O)CCCCCCCCCCCCCCCc1nnn[nH]1)C(=O)N[C@H]1CCC(=O)NCCCC[C@@H](C(N)=O)NC(=O)[C@H](Cc2c[nH]c3ccccc23)NC(=O)[C@H](CCCNC(=N)N)NC(=O)[C@@H](Cc2ccccc2)NC(=O)[C@@H]2C[C@@H](O)CN2C1=O [Example 19, (2-{2-[16-(Tetrazol-5-yl)hexadecanoylamino]ethoxy}ethoxy)acetyl-Gly-Ser-Gln-Tyr-Dap(BCMA)-Nle-c[Glu-Hyp-D-Phe-Arg-Trp-Lys]-NH2] ({Palmitoyl(16-(5-tetrazolyl))-AEEA}-GSQY[Dap](NTA)[Nle]E[Hyp][dF]RWK-NH2; lactam 7-12) | 3.9 | > 10000 |  | 
